Laboratory results reported in ChEMBL document CHEMBL6109169, “1,6-Naphthridine Compounds as SMARCA2 Inhibitors for Treating Non-small Cell Lung Cancer” (ACS Med Chem Lett, 2025).

Molecular target: SWI/SNF-related matrix-associated actin-dependent regulator of chromatin subfamily A member 2 (Homo sapiens, UniProt P51531)
Experiment: Inhibition of N-terminal hexa-histidine-tagged truncated human SMARCA2 (470 to 1590 residues) extracted from Sf9 insect cells using poly(dA-dT) linear dsDNA as substrate preincubated for 30 mins followed by substrate/ATP addition measured after 180 mins by ADP-Glo assay
Format: cell-free

SWI/SNF-related matrix-associated actin-dependent regulator of chromatin subfamily A member 2, sequence (P51531 whole entry, the tested form may be a part): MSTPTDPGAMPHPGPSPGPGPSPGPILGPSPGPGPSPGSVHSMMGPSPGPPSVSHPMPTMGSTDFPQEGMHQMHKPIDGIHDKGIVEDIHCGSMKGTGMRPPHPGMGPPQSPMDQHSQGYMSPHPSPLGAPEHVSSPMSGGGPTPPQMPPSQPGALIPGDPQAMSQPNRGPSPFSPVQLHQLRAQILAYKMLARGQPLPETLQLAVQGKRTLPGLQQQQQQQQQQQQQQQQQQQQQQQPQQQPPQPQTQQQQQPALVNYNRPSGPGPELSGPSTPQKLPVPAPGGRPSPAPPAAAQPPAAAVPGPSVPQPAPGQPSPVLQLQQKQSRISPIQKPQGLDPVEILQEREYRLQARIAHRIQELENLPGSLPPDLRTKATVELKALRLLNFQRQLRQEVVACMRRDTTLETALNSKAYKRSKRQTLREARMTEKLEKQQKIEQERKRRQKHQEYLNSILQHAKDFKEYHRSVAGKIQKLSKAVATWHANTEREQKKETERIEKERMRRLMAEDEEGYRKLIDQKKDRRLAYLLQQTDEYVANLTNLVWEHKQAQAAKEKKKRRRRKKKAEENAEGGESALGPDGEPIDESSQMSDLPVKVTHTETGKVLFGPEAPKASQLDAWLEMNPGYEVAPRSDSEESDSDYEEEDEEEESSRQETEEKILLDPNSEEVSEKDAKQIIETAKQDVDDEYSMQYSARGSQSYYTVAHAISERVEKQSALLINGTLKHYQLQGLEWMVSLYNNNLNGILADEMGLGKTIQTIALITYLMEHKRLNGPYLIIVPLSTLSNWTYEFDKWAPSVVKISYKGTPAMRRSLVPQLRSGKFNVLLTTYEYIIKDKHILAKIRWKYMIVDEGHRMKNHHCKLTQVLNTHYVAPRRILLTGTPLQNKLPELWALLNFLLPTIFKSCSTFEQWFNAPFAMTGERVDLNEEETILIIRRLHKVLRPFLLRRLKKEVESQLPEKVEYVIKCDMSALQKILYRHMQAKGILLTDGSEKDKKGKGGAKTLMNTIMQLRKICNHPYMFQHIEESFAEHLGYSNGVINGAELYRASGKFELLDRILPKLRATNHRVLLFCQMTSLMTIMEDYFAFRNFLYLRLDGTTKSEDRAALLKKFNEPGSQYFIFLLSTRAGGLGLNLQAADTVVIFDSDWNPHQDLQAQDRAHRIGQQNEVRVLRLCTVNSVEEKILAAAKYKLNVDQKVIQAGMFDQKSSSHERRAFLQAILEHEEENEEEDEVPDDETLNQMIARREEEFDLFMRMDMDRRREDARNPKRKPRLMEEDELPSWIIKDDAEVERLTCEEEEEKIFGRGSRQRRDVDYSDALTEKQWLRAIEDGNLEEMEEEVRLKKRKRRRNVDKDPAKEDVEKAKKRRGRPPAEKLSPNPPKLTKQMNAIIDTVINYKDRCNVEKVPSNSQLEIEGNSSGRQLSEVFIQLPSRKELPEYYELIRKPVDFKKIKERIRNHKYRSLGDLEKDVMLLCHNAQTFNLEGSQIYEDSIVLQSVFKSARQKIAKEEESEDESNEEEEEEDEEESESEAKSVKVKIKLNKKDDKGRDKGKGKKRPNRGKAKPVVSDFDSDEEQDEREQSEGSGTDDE

Structure (SMILES) | IC50 [nM]
CCS(=O)(=O)N1CCc2ccc(C(=O)NCc3cc4nc(-c5cccc(N6C[C@@H](C)O[C@@H](C)C6)n5)ccc4cn3)cc21 | 3.6
C[C@@H]1CN(c2cccc(-c3ccc4cnc(CNC(=O)c5cc(Cl)c6c(c5)N(S(C)(=O)=O)CC6)cc4n3)n2)C[C@H](C)O1 | 2.27
C=CCS(=O)(=O)N1CCc2ccc(C(=O)NCc3cc4nc(-c5cccc(N6C[C@@H](C)O[C@@H](C)C6)n5)ccc4cn3)cc21 | 8.14
